From patent US12448400B2, “KRAS G12D modulating compounds” (priority 2023, dated 2025)

Tests used:
[1] = Rat oral pharmacokinetics; parameters: species or system Male Sprague Dawley rats; conditions: male, Sprague Dawley, in vivo
Protocol: Rat Oral Pharmacokinetics
Test compounds were formulated in solution formulations (10 w/v % Sulfobutylether-p-cyclodextrin; 90% w/v % 50 mM Citrate Buffer) and administered orally to a group of three Male Sprague Dawley rats. The animals were fasted overnight prior to dose administration and up to four hours after dosing. The test articles were administrated by oral gavage at a dose volume of 5 mL-eq/kg.
(§1) Blood samples were collected at predose and 0.25, 0.5, 1, 2, 4, 6, 8, 12, 24, 48 and 72 hours post dose into K2EDTA tubes and stored on wet ice until processed. Whole blood was processed to plasma by centrifugation (3500 rpm for 10 minutes at 5° C.) within 30 minutes of collection. Plasma samples were placed in Micronic 96 well tubes and stored at −80° C. until transferred. Plasma concentration of the test compounds was determined by LC-MS/MS. Pharmacokinetic parameters were estimated using non-compartment model analysis. The maximum observed concentration (Cmax) and area under the curve from time of dosing to last measured concentration (AUClast) were calculated and reported.

GP2D (KRAS G12D) cells = assay: 2D cell viability assay (CellTiter-Glo); assay type: cell-based; conditions: 96 h; GP2D cells, 4 days, CellTiter-Glo luminescence; read-out: G12D 2D EC50
Outline: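 GP2D (KRAS G12D) cells, 1000/well in RPMI + 10% FBS, were plated onto compound (1:3 DMSO series) and grown 4 days at 37 °C, 5% CO2 in 2D. CellTiter-Glo luminescence was read; EC50 is the concentration giving 50% signal decrease, from sigmoidal fit.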

GDP-loaded KRAS G12D = GDP-loaded KRAS G12D (Homo sapiens, UniProt P01116, G12D); assay: KRAS G12D (GDP) biochemical assay, TR-FRET probe displacement; assay type: binding; conditions: 0.5 nM enzyme, 30 min pre-incubation, 2 h incubation, TR-FRET ratio; read-out: G12D IC50
Chain of GDP-loaded KRAS G12D (P01116 1-188 isoform P01116-2 G12D): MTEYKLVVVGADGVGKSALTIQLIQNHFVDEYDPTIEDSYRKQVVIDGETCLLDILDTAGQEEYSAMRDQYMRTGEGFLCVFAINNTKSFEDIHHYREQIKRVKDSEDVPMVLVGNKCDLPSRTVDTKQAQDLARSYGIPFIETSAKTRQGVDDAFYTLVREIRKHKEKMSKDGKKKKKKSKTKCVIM
Outline: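 Compound pre-incubated 30 min with GDP-loaded KRAS G12D in 50 mM Hepes pH 7.4, 150 mM NaCl, 5 mM MgCl2, 0.005% Tween-20, then Eu-streptavidin and TR-FRET probe added. After 2 h at room temperature, TR-FRET ratio read; IC50 is 50% ratio decrease, sigmoidal fit.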

[2] = Mouse oral cassette pharmacokinetics; assay type: in vivo, male CD-1 mice; conditions: male, CD-1, mouse, in vivo, po, 30 mg/kg
Protocol: Mouse Oral Cassette Pharmacokinetics
Test compounds (1-3 compounds per cassette) were formulated in solution formulations (10 w/v % Captisol in 50 mM Citrate buffer) and administered orally at 30 mg-eq./kg each compound to a group of four male CD-1 mice. The test articles were administrated by oral gavage at a dose volume of 10 mL-eq/kg.
as §1, with “at” for “at predose and 0.25,”, “3,” for “2, 4,”, “8,” for “8, 12, 24, 48”, “24” for “72”

SMILES | Rat Parent % F ([1]; 7.5 mg/kg) | Rat Parent AUC ([1]; 7.5 mg/kg) | EC50 (GP2D (KRAS G12D) cells) | IC50 (GDP-loaded KRAS G12D) | Mouse Parent AUC [2] | Rat Parent % F ([1]; 5 mg/kg) | Rat Parent AUC ([1]; 5 mg/kg)
C#Cc1c(F)ccc2cc(O)cc(-c3nc4c5c(nc(OC[C@@]67CCCN6C[C@H](F)C7)nc5c3F)N3C[C@H]5CC[C@@H]([C@@H]3[C@H]3CCC[C@@H]43)N5Cc3oc(=O)oc3C)c12 [Example 42, 4-(((3aS,3bS,4S,7R,14bR)-13-(8-ethynyl-7-fluoro-3-hydroxynaphthalen-1-yl)-12-fluoro-10-(((2R,7aS)-2-fluorotetrahydro-1H-pyrrolizin-7a(5H)-yl)methoxy)-2,3,3a,3b,4,5,6,7,8,14b-decahydro-1H-8a,9,11,14,15-pentaaza-4,7-methanocyclopenta[d]naphtho[1,8-ab]heptalen-15-yl)methyl)-5-methyl-1,3-dioxol-2-one] | 0.3% | 0.2 µM·h | 1700 pM |  |  |  | 
C#Cc1c(F)ccc2cc(N)cc(-c3nc4c5c(nc(OC[C@@]67CCCN6C[C@H](F)C7)nc5c3F)N3C[C@H]5CC[C@@H]([C@H]3CCC4)N5Cc3oc(=O)oc3CCCCCC)c12 [Example 36, 4-(((6aR,7S,10R)-2-(3-amino-8-ethynyl-7-fluoronaphthalen-1-yl)-1-fluoro-13-(((2R,7aS)-2-fluorotetrahydro-1H-pyrrolizin-7a(5H)-yl)methoxy)-5,6,6a,7,8,9,10,11-octahydro-4H-3,11a,12,14,15-pentaaza-7,10-methanocyclohepta[4,5]cycloocta[1,2,3-de]naphthalen-15-yl)methyl)-5-hexyl-1,3-dioxol-2-one] | 1.9% | 0.052 µM·h | 490 pM |  |  |  | 
C#Cc1c(F)ccc2cc(N)cc(-c3nc4c5c(nc(OC[C@@]67CCCN6C[C@H](F)C7)nc5c3F)N3C[C@H]5CC[C@@H]([C@H]3CCC4)N5Cc3oc(=O)oc3C(C)(C)C)c12 [Example 81, 4-(((6aR,7S,10R)-2-(3-amino-8-ethynyl-7-fluoronaphthalen-1-yl)-1-fluoro-13-(((2R,7aS)-2-fluorotetrahydro-1H-pyrrolizin-7a(5H)-yl)methoxy)-5,6,6a,7,8,9,10,11-octahydro-4H-3,11a,12,14,15-pentaaza-7,10-methanocyclohepta[4,5]cycloocta[1,2,3-de]naphthalen-15-yl)methyl)-5-(tert-butyl)-1,3-dioxol-2-one] | 0.4% | 0.011 µM·h | 630 pM |  |  |  | 
C#Cc1c(F)ccc2cc(N)nc(-c3c(F)c4c5c(nc(OC[C@@]67CCCN6C[C@H](F)C7)nc5c3F)N3C[C@H]5CC[C@@H]([C@H]3CCC4)N5Cc3oc(=O)oc3C)c12 (atropisomer, axis not shown; (aR)) [Example 73, 4-(((1S,4R,11S,15aR)-11-(3-amino-8-ethynyl-7-fluoroisoquinolin-1-yl)-10,12-difluoro-8-(((2R,7aS)-2-fluorotetrahydro-1H-pyrrolizin-7a(5H)-yl)methoxy)-2,3,4,5,13,14,15,15a-octahydro-1H-1,4-epiminoazepino[1′,2′:1,8]azocino[2,3,4-de]quinazolin-16-yl)methyl)-5-methyl-1,3-dioxol-2-one] | 2% | 0.3 µM·h | 820 pM |  |  |  | 
C#Cc1c(F)ccc2cc(O)cc(-c3nc4c5c(nc(OC[C@@]67CCCN6C[C@H](F)C7)nc5c3F)N3C[C@H]5CC[C@@H]([C@H]3CCC4)N5Cc3oc(=O)oc3CCCCCC)c12 [Example 14, 4-(((6aR,7S,10R)-2-(8-ethynyl-7-fluoro-3-hydroxynaphthalen-1-yl)-1-fluoro-13-(((2R,7aS)-2-fluorotetrahydro-1H-pyrrolizin-7a(5H)-yl)methoxy)-5,6,6a,7,8,9,10,11-octahydro-4H-3,11a,12,14,15-pentaaza-7,10-methanocyclohepta[4,5]cycloocta[1,2,3-de]naphthalen-15-yl)methyl)-5-hexyl-1,3-dioxol-2-one] |  |  | 140 pM | 7300 pM | 0.94 µM·h |  | 
C#Cc1c(F)ccc2cccc(-c3nc4c5c(nc(OC[C@@]67CCCN6C[C@H](F)C7)nc5c3F)N3C[C@H]5CC[C@@H]([C@H]3CCC4)N5C(=O)OC(C)OC(=O)CCC)c12 (stereo partly drawn) [Example 25, 1-(butyryloxy)ethyl (6aR,7S,10R)-2-(8-ethynyl-7-fluoronaphthalen-1-yl)-1-fluoro-13-(((2R,7aS)-2-fluorotetrahydro-1H-pyrrolizin-7a(5H)-yl)methoxy)-5,6,6a,7,8,9,10,11-octahydro-4H-3,11a,12,14,15-pentaaza-7,10-methanocyclohepta[4,5]cycloocta[1,2,3-de]naphthalene-15-carboxylate] |  |  |  |  |  | 1% | 0.037 µM·h
C#Cc1c(F)ccc2cc(O)cc(-c3nc4c5c(nc(OC[C@@]67CCCN6C[C@H](F)C7)nc5c3F)N3C[C@H]5CC[C@@H]([C@H]3CCC4)N5Cc3oc(=O)oc3C3CCCCC3)c12 [Example 15, 4-cyclohexyl-5-(((6aR,7S,10R)-2-(8-ethynyl-7-fluoro-3-hydroxynaphthalen-1-yl)-1-fluoro-13-(((2R,7aS)-2-fluorotetrahydro-1H-pyrrolizin-7a(5H)-yl)methoxy)-5,6,6a,7,8,9,10,11-octahydro-4H-3,11a,12,14,15-pentaaza-7,10-methanocyclohepta[4,5]cycloocta[1,2,3-de]naphthalen-15-yl)methyl)-1,3-dioxol-2-one] |  |  | 200 pM | 7900 pM | 0.25 µM·h |  | 
C#Cc1c(F)ccc2cc(O)cc(-c3nc4c5c(nc(OC[C@@]67CCCN6C[C@H](F)C7)nc5c3F)N3C[C@H]5CC[C@@H]([C@H]3CC[C@H]4C)N5Cc3oc(=O)oc3C)c12 [Example 11, 4-(((4R,6aR,7S,10R)-2-(8-ethynyl-7-fluoro-3-hydroxynaphthalen-1-yl)-1-fluoro-13-(((2R,7aS)-2-fluorotetrahydro-1H-pyrrolizin-7a(5H)-yl)methoxy)-4-methyl-5,6,6a,7,8,9,10,11-octahydro-4H-3,11a,12,14,15-pentaaza-7,10-methanocyclohepta[4,5]cycloocta[1,2,3-de]naphthalen-15-yl)methyl)-5-methyl-1,3-dioxol-2-one] |  |  | 120 pM | 4400 pM | 0.96 µM·h |  | 
C#Cc1c(F)ccc2cc(O)cc(-c3nc4c5c(nc(OC[C@@]67CCCN6C[C@H](F)C7)nc5c3F)N3C[C@H]5CC[C@H](N5)[C@H]3CC[C@H]4C)c12 [Example 11-P, 5-ethynyl-6-fluoro-4-((4R,6aR,7S,10R)-1-fluoro-13-(((2R,7aS)-2-fluorotetrahydro-1H-pyrrolizin-7a(5H)-yl)methoxy)-4-methyl-5,6,6a,7,8,9,10,11-octahydro-4H-3,11a,12,14,15-pentaaza-7,10-methanocyclohepta[4,5]cycloocta[1,2,3-de]naphthalen-2-yl)naphthalen-2-ol] |  |  | 90 pM | 90 pM | 0.14 µM·h |  | 
C#Cc1c(F)ccc2cc(N)cc(-c3nc4c5c(nc(OC[C@@]67CCCN6C[C@H](F)C7)nc5c3F)N3C[C@H]5CC[C@H](N5)[C@H]3CCC4)c12 [Example 69-P, 5-ethynyl-6-fluoro-4-((6aR,7S,10R)-1-fluoro-13-(((2R,7aS)-2-fluorotetrahydro-1H-pyrrolizin-7a(5H)-yl)methoxy)-5,6,6a,7,8,9,10,11-octahydro-4H-3,11a,12,14,15-pentaaza-7,10-methanocyclohepta[4,5]cycloocta[1,2,3-de]naphthalen-2-yl)naphthalen-2-amine] |  |  | 500 pM | 70 pM | 0.5 µM·h |  | 
Cc1cc(N)nc(-c2c(Cl)c3c4c(nc(OC[C@@]56CCCN5C[C@H](F)C6)nc4c2F)N2C[C@H]4CC[C@@H]([C@H]2CC3)N4Cc2oc(=O)oc2C)c1C(F)(F)F (atropisomer, axis not shown; (aR)) [Example 3, 4-(((1R,4S,14aR)-11-((R)-6-amino-4-methyl-3-(trifluoromethyl)pyridin-2-yl)-12-chloro-10-fluoro-8-(((2R,7aS)-2-fluorotetrahydro-1H-pyrrolizin-7a(5H)-yl)methoxy)-1,2,3,4,5,13,14,14a-octahydro-1,4-epiminoazepino[1′,2′:1,7]azepino[2,3,4-de]quinazolin-15-yl)methyl)-5-methyl-1,3-dioxol-2-one] |  |  | 920 pM | 4700 pM | 5.7 µM·h |  | 
